Source: the supplement of paper PMC10307832

Tests used:
Assay in all cases: relative viability (nuclei count vs DMSO), 5 days (fraction); higher = more cells survive
[1] = tested on: CAL-12T
How it was run: (§1)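 Each reported value is a median over duplicate plates. It expresses relative viability: treated-well nuclei count divided by vehicle-well nuclei count. Lung cancer cell lines in 1536-well plates were dosed by pin tool a day after seeding, alone with one drug or with a fixed anchor-drug dose plus five library-drug doses (not always all listed) in √10 steps, and nuclei were counted after 5 days.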

[2] = tested on: NCI-H1666
How it was run: as §1

[3] = tested on: NCI-H1975
How it was run: as §1

[4] = tested on: NCI-H1755
How it was run: as §1

[5] = tested on: NCI-H441
How it was run: as §1

[6] = tested on: ChaGo-K-1
How it was run: as §1

[7] = tested on: HCC-15
How it was run: as §1

[8] = tested on: COR-L 105
How it was run: as §1

[9] = tested on: NCI-H2085
How it was run: as §1

[10] = tested on: NCI-H2126
How it was run: as §1

[11] = tested on: NCI-H3122
How it was run: as §1

[12] = tested on: NCI-H322M
How it was run: as §1

[13] = tested on: HCC-78
How it was run: as §1

[14] = tested on: NCI-H1993
How it was run: as §1

[15] = tested on: EPLC-272H
How it was run: as §1

[16] = tested on: HOP-62
How it was run: as §1

[17] = tested on: LXF-289
How it was run: as §1

[18] = tested on: NCI-H1915
How it was run: as §1

[19] = tested on: UMC-11
How it was run: as §1

[20] = tested on: EMC-BAC-2
How it was run: as §1

[21] = tested on: NCI-H2023
How it was run: as §1

`C[C@@H]1CN(CC(=O)Nc2ccc3c(c2)Cc2cccc(-c4cc(=O)cc(N5CCOCC5)o4)c2S3)C[C@H](C)O1` + CC1(C)CCC(c2ccc(Cl)cc2)=C(CN2CCN(c3ccc(C(=O)NS(=O)(=O)c4ccc(N[C@H](CCN5CCOCC5)CSc5ccccc5)c(S(=O)(=O)C(F)(F)F)c4)cc3)CC2)C1 [Navitoclax] (partner 0.5 µM) showed a relative viability ([1]; first compound 0.04 µM) of 1.42, a relative viability ([1]; first compound 0.1265 µM) of 1.11 and a relative viability ([1]; first compound 0.4 µM) of 1.07. It also gave a relative viability ([1]; first compound 4 µM) of 0.652, a relative viability ([2]; first compound 0.04 µM) of 1.14 and a relative viability ([2]; first compound 0.1265 µM) of 1.12. The relative viability ([2]; first compound 0.4 µM) was 0.862, the relative viability ([2]; first compound 4 µM) was 0.781 and the relative viability ([3]; first compound 0.04 µM) was 1.33. The relative viability ([3]; first compound 0.1265 µM) was 1.06, the relative viability ([3]; first compound 0.4 µM) was 1.02 and the relative viability ([3]; first compound 4 µM) was 0.846. For the same compound, the relative viability ([4]; first compound 0.04 µM) was 1.02, the relative viability ([4]; first compound 0.1265 µM) was 0.945 and the relative viability ([4]; first compound 0.4 µM) was 0.924. The relative viability ([4]; first compound 4 µM) was 0.92, the relative viability ([5]; first compound 0.04 µM) was 0.427 and the relative viability ([5]; first compound 0.4 µM) was 0.576. It also gave a relative viability ([5]; first compound 4 µM) of 0.318, a relative viability ([6]; first compound 0.1265 µM) of 0.933 and a relative viability ([6]; first compound 0.4 µM) of 0.956. For the same compound, the relative viability ([6]; first compound 4 µM) was 0.936, the relative viability ([7]; first compound 0.04 µM) was 0.7 and the relative viability ([7]; first compound 0.1265 µM) was 0.639. It also gave a relative viability ([7]; first compound 0.4 µM) of 0.682, a relative viability ([7]; first compound 4 µM) of 0.556 and a relative viability ([8]; first compound 0.04 µM) of 1.01. The relative viability ([8]; first compound 0.1265 µM) was 0.801, the relative viability ([8]; first compound 0.4 µM) was 0.728 and the relative viability ([8]; first compound 4 µM) was 0.686. The relative viability ([9]; first compound 0.04 µM) was 1.23, the relative viability ([9]; first compound 0.1265 µM) was 1.18 and the relative viability ([9]; first compound 0.4 µM) was 1.02. The relative viability ([9]; first compound 4 µM) was 0.827, the relative viability ([10]; first compound 0.04 µM) was 0.879 and the relative viability ([10]; first compound 0.1265 µM) was 0.868. The relative viability ([10]; first compound 0.4 µM) was 0.808, the relative viability ([10]; first compound 4 µM) was 0.851 and the relative viability ([11]; first compound 0.04 µM) was 1.05. It also gave a relative viability ([11]; first compound 0.1265 µM) of 1.03, a relative viability ([11]; first compound 0.4 µM) of 0.965 and a relative viability ([11]; first compound 4 µM) of 0.95. It also gave a relative viability ([12]; first compound 0.04 µM) of 1.17, a relative viability ([12]; first compound 0.1265 µM) of 1.18 and a relative viability ([12]; first compound 0.4 µM) of 1.23. It also gave a relative viability ([12]; first compound 4 µM) of 1.12, a relative viability ([13]; first compound 0.04 µM) of 0.668 and a relative viability ([13]; first compound 0.1265 µM) of 0.706. The relative viability ([13]; first compound 0.4 µM) was 0.69, the relative viability ([13]; first compound 4 µM) was 0.914 and the relative viability ([14]; first compound 0.04 µM) was 0.933. For the same compound, the relative viability ([14]; first compound 0.1265 µM) was 0.868, the relative viability ([14]; first compound 0.4 µM) was 0.644 and the relative viability ([14]; first compound 4 µM) was 0.865. It also gave a relative viability ([15]; first compound 0.04 µM) of 1.09, a relative viability ([15]; first compound 0.1265 µM) of 0.935 and a relative viability ([15]; first compound 0.4 µM) of 1.11. It also gave a relative viability ([15]; first compound 4 µM) of 0.911, a relative viability ([16]; first compound 0.04 µM) of 0.879 and a relative viability ([16]; first compound 0.1265 µM) of 0.979. For the same compound, the relative viability ([16]; first compound 0.4 µM) was 1.14, the relative viability ([16]; first compound 4 µM) was 1.01 and the relative viability ([17]; first compound 0.04 µM) was 0.941. The relative viability ([17]; first compound 0.1265 µM) was 0.929, the relative viability ([17]; first compound 0.4 µM) was 1 and the relative viability ([17]; first compound 4 µM) was 0.913. It also gave a relative viability ([18]; first compound 0.04 µM) of 0.792, a relative viability ([18]; first compound 0.1265 µM) of 0.789 and a relative viability ([18]; first compound 0.4 µM) of 0.796. It also gave a relative viability ([18]; first compound 4 µM) of 0.753, a relative viability ([19]; first compound 0.04 µM) of 0.32 and a relative viability ([19]; first compound 0.1265 µM) of 0.288. It also gave a relative viability ([19]; first compound 0.4 µM) of 0.301, a relative viability ([19]; first compound 4 µM) of 0.229 and a relative viability ([20]; first compound 0.04 µM) of 1.16. For the same compound, the relative viability ([20]; first compound 0.1265 µM) was 1.12, the relative viability ([20]; first compound 0.4 µM) was 1.17 and the relative viability ([20]; first compound 4 µM) was 1.09. The relative viability ([21]; first compound 0.04 µM) was 0.993, the relative viability ([21]; first compound 0.1265 µM) was 0.921 and the relative viability ([21]; first compound 0.4 µM) was 0.923. It also gave a relative viability ([21]; first compound 4 µM) of 0.796.

With `CC(C)Oc1cc(Nc2nc(N[C@@H](C)c3ccc(F)cn3)ncc2Cl)n[nH]1` [AZ23] + CC1(C)CCC(c2ccc(Cl)cc2)=C(CN2CCN(c3ccc(C(=O)NS(=O)(=O)c4ccc(N[C@H](CCN5CCOCC5)CSc5ccccc5)c(S(=O)(=O)C(F)(F)F)c4)cc3)CC2)C1 [Navitoclax] (partner 0.5 µM) the relative viability ([1]; first compound 0.01 µM) was 0.61, the relative viability ([1]; first compound 0.03162 µM) was 1.28 and the relative viability ([1]; first compound 0.3162 µM) was 1.17. It also gave a relative viability ([2]; first compound 0.01 µM) of 0.79, a relative viability ([2]; first compound 0.03162 µM) of 0.827 and a relative viability ([2]; first compound 0.3162 µM) of 1. It also gave a relative viability ([3]; first compound 0.01 µM) of 1.24, a relative viability ([3]; first compound 0.03162 µM) of 1.41 and a relative viability ([3]; first compound 0.3162 µM) of 1.2. For the same compound, the relative viability ([4]; first compound 0.01 µM) was 1.17, the relative viability ([4]; first compound 0.03162 µM) was 1.11 and the relative viability ([4]; first compound 0.3162 µM) was 1.03. For the same compound, the relative viability ([5]; first compound 0.01 µM) was 0.518, the relative viability ([5]; first compound 0.03162 µM) was 0.755 and the relative viability ([5]; first compound 0.3162 µM) was 0.769. It also gave a relative viability ([6]; first compound 0.01 µM) of 0.782, a relative viability ([6]; first compound 0.03162 µM) of 1.23 and a relative viability ([6]; first compound 0.3162 µM) of 0.949. It also gave a relative viability ([7]; first compound 0.01 µM) of 0.744, a relative viability ([7]; first compound 0.03162 µM) of 0.798 and a relative viability ([7]; first compound 0.3162 µM) of 0.71. For the same compound, the relative viability ([8]; first compound 0.01 µM) was 0.543, the relative viability ([8]; first compound 0.03162 µM) was 0.869 and the relative viability ([8]; first compound 0.3162 µM) was 0.736. The relative viability ([9]; first compound 0.01 µM) was 1.31, the relative viability ([9]; first compound 0.03162 µM) was 1.27 and the relative viability ([9]; first compound 0.3162 µM) was 1.11. The relative viability ([10]; first compound 0.01 µM) was 0.835, the relative viability ([10]; first compound 0.03162 µM) was 0.924 and the relative viability ([10]; first compound 0.3162 µM) was 0.774. The relative viability ([11]; first compound 0.01 µM) was 1.11, the relative viability ([11]; first compound 0.03162 µM) was 1.02 and the relative viability ([11]; first compound 0.3162 µM) was 1.08. The relative viability ([12]; first compound 0.01 µM) was 1.24, the relative viability ([12]; first compound 0.03162 µM) was 1.09 and the relative viability ([12]; first compound 0.3162 µM) was 1.29. The relative viability ([13]; first compound 0.01 µM) was 0.617, the relative viability ([13]; first compound 0.03162 µM) was 0.662 and the relative viability ([13]; first compound 0.3162 µM) was 0.488. It also gave a relative viability ([14]; first compound 0.01 µM) of 0.688, a relative viability ([14]; first compound 0.3162 µM) of 0.916 and a relative viability ([15]; first compound 0.01 µM) of 1.3. The relative viability ([15]; first compound 0.03162 µM) was 1.16, the relative viability ([16]; first compound 0.01 µM) was 0.94 and the relative viability ([16]; first compound 0.03162 µM) was 1.21. The relative viability ([16]; first compound 0.3162 µM) was 1.18, the relative viability ([17]; first compound 0.01 µM) was 1.08 and the relative viability ([17]; first compound 0.03162 µM) was 0.951. For the same compound, the relative viability ([17]; first compound 0.3162 µM) was 0.888, the relative viability ([18]; first compound 0.01 µM) was 0.799 and the relative viability ([18]; first compound 0.03162 µM) was 0.845. The relative viability ([18]; first compound 0.3162 µM) was 0.797, the relative viability ([19]; first compound 0.01 µM) was 0.271 and the relative viability ([19]; first compound 0.03162 µM) was 0.334. The relative viability ([19]; first compound 0.3162 µM) was 0.304, the relative viability ([20]; first compound 0.01 µM) was 1.59 and the relative viability ([20]; first compound 0.03162 µM) was 1.25. For the same compound, the relative viability ([20]; first compound 0.3162 µM) was 1.19, the relative viability ([21]; first compound 0.03162 µM) was 1.1 and the relative viability ([21]; first compound 0.3162 µM) was 1.05.
